This note sets out measurements from patent US20110028453A1, “Treating Negative Symptoms of Schizophrenia Associated with Defective Neuregulin 1” (priority 2009, published 2011).

Experiment [1] deals with NRG1. Description: Western blot of NRG1 level in treated A172 cells. It is filed as cell-based, human. On the procedure: (§1) A172 cells were cultured in DMEM supplemented with 10% heat-inactivated fetal bovine serum (FBS; Hyclone, Logan, Utah), 100 U/mL penicillin and 0.1 mg/mL streptomycin (Invitrogen, Carlsbad, Calif.) at 37° C. in a humidified incubator with 5% CO2 and 95% air.
(§2) The cells were lysed and the lysates were suspended in a RIPA buffer (50 mM HEPES (pH 7.4), 4 mM EDTA, 150 mM NaCl, 10 mM Na4P2O7, 100 mM NaF, 2 mM Na3VO4, 1% Triton X-100, 0.25% sodium deoxycholate, 50 mM 4-(2-aminoethyl) benzene sulfonylfluoride, 50 μg/mL leupeptin, and 20 μg/mL aprotinin). For each cell sample, 30˜50 μg of total protein, along with a molecular weight ladder were resolved on 8% a bis-tris polyacrylamide NuPAGE gels (90˜130 V, 2 hrs) via electrophoresis and then transferred onto a nitrocellulose membrane (Invitrogen) (550 mA, 90 min) The membrane was first blocked using phosphate buffered saline (PBS) with 5% dry skimmed milk powder for 1 hr at room temperature and then incubated at 4° C. in the presence of mouse anti-serotonin transporter antibody (MAB1564; Chemicon), rabbit anti-norepinephrine transporter antibody (AB2234; Millipore, Bedford, Mass.), or anti-β-actin antibody (MAB1501, Chemicon) overnight. The antibody was diluted in phosphate buffered saline containing 0.1% Tween-20 (PBST). Afterwards, the membrane was washed with PBST and then incubated with a peroxidase-conjugated secondary antibody in PBST. After being washed for several times, the membrane was subjected to the enhanced chemiluminescence (ECL) analysis, following the method described in Yeh et al., 2009, Glia, 57:454-464, using an ECL kit purchased from Santa Cruz Biotechnology and Kodak X-OMAT LS film (Eastman Kodak, Rochester, N.Y.).
(§3) A172 cells were cultured in the presence of serotonin at a concentration of 1, 3, 10, 30, or 100 μM. The levels of both NGR1 and ErbB4, the major receptor of NRG1 in the brain, in the treated A172 cells were examined by Western blot as described above at various time points (e.g., 2 hr, 4 hr, 8 hr, 12 hr, and 24 hr post treatment), using rabbit anti-NRG1 precursor antibody no. […]
In general terms: In western blotting, separated proteins are transferred to a membrane and probed.

The subject of experiment [2] is ErbB4. Description: Western blot of ErbB4 level in treated A172 cells. The format is cell-based, human. As for the experimental part: as §1, §2, §3
Experiment [3] relates to wild-type and NRG1+/- mice. Description: Social withdrawal behavior evaluation. The format is in vivo, mouse. Also on record: key to social approach change score: score: +1/s social side, 0 center, -1 nonsocial; presence minus absence. The settings on record: i.p. 30 min before testing; for social approach change score: NRG1+/- mice; for social approach change score, effect: wild-type mice, same doses. From the text:
(§4) Transmembrane (TM)-domain NRG1 heterozygous mutant mice (129S5-Nrg1tm1Lex, ID#011745-UCD) were obtained from Mutant Mouse Regional Resource Centers (MMRRC) and backcrossed with B6 mice. NRG1^+/− mice and their wild-type littermates were generated by in-house mating of male NRG1^+/− mice and female C57BL/6 mice. Heterozygous crossing has been practiced for at least 7 generations to obtain animals with a homogeneous C57BL/6 genetic background except for the TM-mutated nrg1 gene locus. Mouse genotypes were determined by PCR analysis. Animals were housed (five per cage) under a 12-hr light/dark cycle (lights on from 8:00 a.m. to 8:00 p.m.) at constant room temperature and relative humidity with food and water available ad libitum. All experiments were started at 10-week-old period at weight of 25-30 g.
(§5) Before undergoing any behavioral test, animals were handled by an investigator for at least 3 days so that they became familiar with the investigator. The animals had been placed under laboratory conditions for at least 1 hr before each behavioral test.
The social withdrawal behavior evaluation study was performed following the method described in Sankoorikal et al., Biol. Psychiatry 59:415-423, 2006 with modifications. Briefly, this study was carried out in a behavioral testing apparatus containing two end chambers and one middle chamber. A clear Plexiglas cylinder was placed in each of the two end chambers, one being designated as “social side” (where stimulus to mice was introduced through the cylinder) and the other being designated as the “nonsocial side.” (where the cylinder is empty). Multiple holes (0.5 in diameter each) are evenly spaced over the surface of the two cylinders.
Each of the mice to be tested was housed individually for 3 days before the social withdrawal behavior evaluation study was performed. During the study, the response (i.e., social approach) of a test mouse to a novel (unfamiliar) “stimulus” was observed within 5 minutes after the mouse was exposed to the stimulus. A “social approach score” was calculated for each mouse according to the time it spent in each of the three chambers as follows: +1 for each second spent in the social side chamber, 0 for each second spent in the center chamber, and −1 for each second spent in the nonsocial side chamber. The “social approach change score” was calculated by subtracting the value of “social approach score in the absence of stimulus mouse” condition from the value for “presence of stimulus mouse” condition.

In experiment [4] the test system is wild-type and NRG1+/- mice. Description: Forced swimming test. The settings on record: for immobility period: desipramine 20 mg/kg i.p.; for effect on immobility time: i.p., desipramine 20, imipramine 15, venlafaxine 15 mg/kg. It is filed as in vivo, mouse.
Description: as §4, §5
To perform the forced swimming test, each mouse, administered via intraperitoneal injection with either one of the above-listed serotonin transporter inhibitors or saline 30-60 minutes ago, was placed individually in a clear glass cylinder (height, 25 cm; diameter, 15 cm) containing water (depth: 15 cm; temperature: 26±1° C.). Its behavior was recorded by a video camera during a 6-min testing period. The duration of immobility was measured during the last 4 min after a 2-min habituation period.

Setting [5] is: male (FIG. 2 panel A), desipramine 20, imipramine 15, fluvoxamine 15, venlafaxine 15, duloxetine 20, escitalopram 30 mg/kg, saline −37.7±28.8.
Setting [6] is: NRG1+/- mice, much greater than in wild-type.
Setting [7] is: female, duloxetine 20, escitalopram 30 mg/kg, saline −60.4±40.2.

As to `CCCN(CCC)C1CCc2cccc(O)c2C1` (centres unmarked) [8-OH DPAT, 8-hydroxy-N,N-dipropyl-2-aminotetralin], the “level of NRG1 compared with untreated A172 cells (maximal effect)” value in experiment [1] (0.3 μM, 4 hours) is reported as 1.44±0.12 fold. The “level of ErbB4 compared with untreated A172 cells (maximal effect)” value in experiment [2] (0.3 μM, 4 hours) came to 1.44±0.10 fold.
Take `COc1cc(CC(C)N)c(OC)cc1I` (centres unmarked) [DOI]: the “effect on level of NRG1” value in experiment [1] (0.1-3 μM, 4 hours) was “did not show increased levels”. In addition, the “effect on level of ErbB4” value in experiment [2] (0.1-3 μM, 4 hours) is recorded as “did not show increased levels”.
Consider `CNCCCN1c2ccccc2CCc2ccccc21` [desipramine], for which the “social approach change score” value in experiment [3] (setting [5]) was determined as 122.7±31.0. Moreover, the “social approach change score, effect” value in experiment [3] is recorded as “not significantly different”. Moreover, the immobility in experiment [4] (C57BL/6 wild-type mice, desipramine 50 mg/kg, saline 101.4±16.4 sec) stood at 58.6 ± 11.0 s. For the same molecule, the immobility period is given as 36.5±18.0% in experiment [4] (NRG1+/- mice, control NRG1+/- = 122.8%, p<0.01) and 65.7±24.5% in experiment [4] (wild-type mice, control wild-type = 100.0%, p=0.24). The “effect on immobility time” value was “decreased” in experiment [4] (setting [6]) and “only slightly affected” in experiment [4] (wild-type mice).
Turning to `CNCC[C@H](Oc1cccc2ccccc12)c1cccs1` [duloxetine], the entries for the “social approach change score” value in experiment [3] (setting [7]) and in experiment [3] (setting [5]) were 103.7±30.8 and 78.7±28.5, respectively. In addition, in experiment [3], the “social approach change score, effect” value is listed as “not significantly different”.
The matching figures for `CN(C)CCC[C@@]1(c2ccc(F)cc2)OCc2cc(C#N)ccc21` [escitalopram]: 110.1±41.9, 175.3±60.4 and “not significantly different”.
Regarding `COCCCC/C(=N\OCCN)c1ccc(C(F)(F)F)cc1` [fluvoxamine], the “social approach change score” value in experiment [3] (setting [5]) stood at 98.6±15.9. Besides, the “social approach change score, effect” value in experiment [3] is recorded as “not significantly different”.
In the case of `CN(C)CCCN1c2ccccc2CCc2ccccc21` [imipramine], in experiment [3] (setting [5]), the “social approach change score” value stood at 138.7±18.8. Moreover, the “social approach change score, effect” value in experiment [3] is given as “not significantly different”. Moreover, the “effect on immobility time” value in experiment [4] (setting [6]) is reported as “decreased”; in experiment [4] (wild-type mice) it was “only slightly affected”.
Turning to `NCCc1c[nH]c2ccc(O)cc12` [serotonin], the “level of NRG1 compared to saline control” value in experiment [1] (serotonin 10 μM, p<0.05) was determined as 1.4±0.06 fold. The “level of ErbB4 compared to saline control” value in experiment [2] (serotonin 10 μM, p<0.05) is recorded as 1.7±0.1 fold.
For `COc1ccc(C(CN(C)C)C2(O)CCCCC2)cc1` (centres unmarked) [venlafaxine], in experiment [3] (setting [5]), the “social approach change score” value amounted to 61.9±24.7. Further, the “social approach change score, effect” value in experiment [3] was “not significantly different”. Moreover, the “effect on immobility time” value in experiment [4] (setting [6]) was “decreased”; in experiment [4] (wild-type mice), “only slightly affected”.
